{"source": "ChEMBL document CHEMBL1141013", "about": "“Novel oxime and oxime ether derivatives of 12,14-dichlorodehydroabietic acid: design, synthesis, and BK channel-opening activity” (Bioorg Med Chem Lett, 2008)", "data": [{"target": "Calcium-activated potassium channel subunit alpha-1 (Homo sapiens) (UniProt Q12791)", "sequence (Q12791 whole entry)": "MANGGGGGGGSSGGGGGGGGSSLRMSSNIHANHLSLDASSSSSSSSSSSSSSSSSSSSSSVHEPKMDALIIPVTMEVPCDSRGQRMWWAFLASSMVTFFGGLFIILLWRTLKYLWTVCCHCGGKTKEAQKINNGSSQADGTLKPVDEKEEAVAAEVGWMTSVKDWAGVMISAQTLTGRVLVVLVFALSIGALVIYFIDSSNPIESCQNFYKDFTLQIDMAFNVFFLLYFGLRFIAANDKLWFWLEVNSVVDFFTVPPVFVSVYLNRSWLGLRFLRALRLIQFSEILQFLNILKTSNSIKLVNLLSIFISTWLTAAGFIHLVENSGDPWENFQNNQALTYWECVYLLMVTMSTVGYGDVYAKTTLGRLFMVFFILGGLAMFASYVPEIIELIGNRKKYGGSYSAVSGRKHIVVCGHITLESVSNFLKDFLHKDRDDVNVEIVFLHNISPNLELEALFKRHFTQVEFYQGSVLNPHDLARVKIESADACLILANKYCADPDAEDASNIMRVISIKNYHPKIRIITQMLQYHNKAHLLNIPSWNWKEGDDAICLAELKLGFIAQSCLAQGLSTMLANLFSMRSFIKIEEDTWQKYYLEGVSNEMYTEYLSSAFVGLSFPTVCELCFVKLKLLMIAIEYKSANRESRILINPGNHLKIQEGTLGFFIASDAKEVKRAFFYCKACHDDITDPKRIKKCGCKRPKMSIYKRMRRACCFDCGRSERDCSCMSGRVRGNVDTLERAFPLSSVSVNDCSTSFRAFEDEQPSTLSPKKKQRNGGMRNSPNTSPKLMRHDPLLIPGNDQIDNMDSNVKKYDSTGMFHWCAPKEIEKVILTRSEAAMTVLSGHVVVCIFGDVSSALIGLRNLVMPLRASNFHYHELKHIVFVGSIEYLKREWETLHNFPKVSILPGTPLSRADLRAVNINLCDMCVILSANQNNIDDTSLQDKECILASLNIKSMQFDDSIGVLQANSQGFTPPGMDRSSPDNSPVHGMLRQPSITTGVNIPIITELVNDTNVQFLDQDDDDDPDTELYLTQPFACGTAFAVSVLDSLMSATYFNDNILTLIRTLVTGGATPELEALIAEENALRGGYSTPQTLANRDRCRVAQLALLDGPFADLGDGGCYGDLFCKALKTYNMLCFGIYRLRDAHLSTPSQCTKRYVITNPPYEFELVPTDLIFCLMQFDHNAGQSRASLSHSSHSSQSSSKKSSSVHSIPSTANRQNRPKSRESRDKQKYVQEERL", "test": "Activation of human BKalpha channel expressed in CHOK1 cells assessed as increase in ionic current at 30 uM by patch clamp method relative to control", "assay_type": "cell-based", "conditions": "CHO-K1", "units": {"Activity": "%"}, "values": [{"smiles": "C#CCO/N=C1\\C[C@H]2[C@](C)(C(=O)O)CCC[C@]2(C)c2cc(Cl)c(C(C)C)c(Cl)c21", "Activity": 425}, {"smiles": "C=CCO/N=C1\\C[C@H]2[C@](C)(C(=O)O)CCC[C@]2(C)c2cc(Cl)c(C(C)C)c(Cl)c21", "Activity": 566}, {"smiles": "O=c1[nH]c2cc(C(F)(F)F)ccc2n1-c1cc(C(F)(F)F)ccc1O", "Activity": 325}, {"smiles": "CO/N=C1\\C[C@H]2[C@](C)(C(=O)O)CCC[C@]2(C)c2cc(Cl)c(C(C)C)c(Cl)c21", "Activity": 410}, {"smiles": "CC(C)c1c(Cl)cc2c(c1Cl)/C(=N/O)C[C@H]1[C@](C)(C(=O)O)CCC[C@]21C", "Activity": 242}]}]}
